Patent publication US9040545B2, “Heterocyclyl pyrazolopyrimidine analogues as selective JAK inhibitors” (Cellzome Limited, priority 2010, dated 2015)

Tests used:
[1] = target: T1, JAK2 (Homo sapiens, UniProt O60674); assay: Kinobeads assay, JAK2; type: binding; details: mixed Molt4/Ramos lysate, read-out: Inhibition values (IC50) JAK2
T1 construct: endogenous in cells; host or cells: mixed Molt4/Ramos lysate (1:2)
Method: (§1) The compounds of the present invention as described in the previous examples were tested in a Kinobeads™ assay as described for ZAP-70 (WO-A 2007/137867). Briefly, test compounds (at various concentrations) and the affinity matrix with the immobilized aminopyrido-pyrimidine ligand 24 were added to cell lysate aliquots and allowed to bind to the proteins in the lysate sample. After the incubation time the beads with captured proteins were separated from the lysate. Bound proteins were then eluted and the presence of JAK2 and JAK3 was detected and quantified using specific antibodies in a dot blot procedure and the Odyssey infrared detection system. Dose response curves for individual kinases were generated and IC50 values calculated. Kinobeads™ assays for ZAP-70 (WO-A 2007/137867) and for kinase selectivity profiling (WO-A 2006/134056) have been previously described.
(§2) The affinity matrix was washed two times with 15 mL of 1×DP buffer containing 0.2% NP40 (IGEPAL® CA-630, Sigma, #I3021) and then resuspended in 1×DP buffer containing 0.2% NP40 (3% beads slurry).
(§3) 5×DP buffer 250 mM Tris-HCl pH 7.4, 25% Glycerol, 7.5 mM MgCl2, 750 mM NaCl, 5 mM Na3VO4; filter the 5×DP buffer through a 0.22 μm filter and store in aliquots at −80° C. The 5×DP buffer is diluted with H2O to 1×DP buffer containing 1 mM DTT and 25 mM NaF.
(§4) Stock solutions of test compounds were prepared in DMSO. In a 96 well plate 30 μL solution of diluted test compounds at 5 mM in DMSO were prepared. Starting with this solution a 1:3 dilution series (9 steps) was prepared. For control experiments (no test compound) a buffer containing 2% DMSO was used.
Molt4 cells (ATCC catalogue number CRL-1582) and Ramos cells (ATCC catalogue number CRL-1596) were grown in 1 L Spinner flasks (Integra Biosciences, #182101) in suspension in RPMI 1640 medium (Invitrogen, #21875-034) supplemented with 10% Fetal Bovine Serum (Invitrogen) at a density between 0.15×106 and 1.2×10^6 cells/mL. Cells were harvested by centrifugation, washed once with 1×PBS buffer (Invitrogen, #14190-094) and cell pellets were frozen in liquid nitrogen and subsequently stored at −80° C. Cells were homogenized in a Potter S homogenizer in lysis buffer: 50 mM Tris-HCl, 0.8% NP40, 5% glycerol, 150 mM NaCl, 1.5 mM MgCl2, 25 mM NaF, 1 mM sodium vanadate, 1 mM DTT, pH 7.5. One complete EDTA-free tablet (protease inhibitor cocktail, Roche Diagnostics, 1873580) per 25 mL buffer was added. The material was dounced 10 times using a mechanized POTTER S, transferred to 50 mL falcon tubes, incubated for 30 minutes on ice and spun down for 10 minutes at 20,000 g at 4° C. (10,000 rpm in Sorvall SLA600, precooled). The supernatant was transferred to an ultracentrifuge (UZ)-polycarbonate tube (Beckmann, 355654) and spun for 1 hour at 100,000 g at 4° C. (33.500 rpm in Ti50.2, precooled). The supernatant was transferred again to a fresh 50 mL falcon tube, the protein concentration was determined by a Bradford assay (BioRad) and samples containing 50 mg of protein per aliquot were prepared. The samples were immediately used for experiments or frozen in liquid nitrogen and stored frozen at −80° C.
(§5) Cell lysate (approximately 50 mg protein per plate) was thawed in a water bath at room temperature and then stored on ice. To the thawed cell lysate 1×DP 0.8% NP40 buffer containing protease inhibitors (1 tablet for 25 mL buffer; EDTA-free protease inhibitor cocktail; Roche Diagnostics 1873580) was added in order to reach a final protein concentration of 10 mg/mL total protein. The diluted cell lysate was stored on ice. Mixed Molt4/Ramos lysate was prepared by combining one volume of Molt4 lysate and two volumes of Ramos lysate (ratio 1:2).
To a 96 well filter plate (Multiscreen HTS, BV Filter Plates, Millipore #MSBVN1250) were added per well: 100 μL affinity matrix (3% beads slurry), 3 μL of compound solution, and 50 μL of diluted lysate. […]

[2] = target: T2, Aurora A (Homo sapiens, UniProt O14965); assay: Kinobeads assay, Aurora A; type: binding; details: for IC50: lysate of pervanadate-treated Jurkat cells, read-out: Inhibition values (IC50) Aur A
T2 construct: cell lysates from Jurkat cells (ATCC TIB-152) used; endogenous in cells; host or cells: Jurkat cells (ATCC TIB-152), treated with pervanadate
T2 sequence (O14965 1-403): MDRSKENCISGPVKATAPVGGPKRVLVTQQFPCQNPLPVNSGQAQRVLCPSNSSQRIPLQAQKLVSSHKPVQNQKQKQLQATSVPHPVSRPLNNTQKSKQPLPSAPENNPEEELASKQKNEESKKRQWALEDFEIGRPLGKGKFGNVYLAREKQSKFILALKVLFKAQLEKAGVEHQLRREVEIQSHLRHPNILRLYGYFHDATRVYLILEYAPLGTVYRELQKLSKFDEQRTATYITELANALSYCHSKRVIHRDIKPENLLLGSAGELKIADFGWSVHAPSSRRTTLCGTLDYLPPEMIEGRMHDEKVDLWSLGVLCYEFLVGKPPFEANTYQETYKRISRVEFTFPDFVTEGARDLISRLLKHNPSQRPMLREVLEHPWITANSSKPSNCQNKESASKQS
Method: as §1, §2, §3, §4, §5
To a 96 well filter plate (Multiscreen HTS, BV Filter Plates, Millipore #MSBVN1250) were added per well: 100 μL affinity matrix (3% beads slurry), 3 μL of compound solution, and 50 μL of diluted lysate. Plates were sealed and incubated for 3 hours in a cold room on a plate shaker (Heidolph tiramax 1000) at 750 rpm. Afterwards the plate was washed 3 times with 230 μL washing buffer (1×DP 0.4% NP40). The filter plate was placed on top of a collection 1 plate (Greiner bio-one, PP-microplate 96 well V-shape, 65120) and the beads were then eluted with 20 μL of sample buffer (100 mM Tris, pH 7.4, 4% SDS, 0.00025% bromophenol blue, 20% glycerol, 50 mM DTT). The eluate was frozen quickly at −80° C. and stored at −20° C.
The kinases in the eluates were detected and quantified by spotting on nitrocellulose membranes and using a first antibody directed against the kinase of interest and a fluorescently labelled secondary antibody (anti-rabbit IRDye™ antibody 800 (Licor, #926-32211). The Odyssey Infrared Imaging system from LI-COR Biosciences (Lincoln, Nebr., USA) was operated according to instructions provided by the manufacturer (Schutz-Geschwendener et al, 2004. Quantitative, two-color Western blot detection with infrared fluorescence. Published May 2004 by LI-COR Biosciences, www.licor.com).
After spotting of the eluates the nitrocellulose membrane (BioTrace NT; PALL, #BTNT30R) was first blocked by incubation with Odyssey blocking buffer (LICOR, 927-40000) for 1 hour at room temperature. Blocked membranes were then incubated for 16 hours at the temperature shown in Table 5 with the first antibody diluted in Odyssey blocking buffer (LICOR #927-40000). Afterwards the membrane was washed twice for 10 minutes with PBS buffer containing 0.2% Tween 20 at room temperature. […]

T1 sequence (O60674 whole entry): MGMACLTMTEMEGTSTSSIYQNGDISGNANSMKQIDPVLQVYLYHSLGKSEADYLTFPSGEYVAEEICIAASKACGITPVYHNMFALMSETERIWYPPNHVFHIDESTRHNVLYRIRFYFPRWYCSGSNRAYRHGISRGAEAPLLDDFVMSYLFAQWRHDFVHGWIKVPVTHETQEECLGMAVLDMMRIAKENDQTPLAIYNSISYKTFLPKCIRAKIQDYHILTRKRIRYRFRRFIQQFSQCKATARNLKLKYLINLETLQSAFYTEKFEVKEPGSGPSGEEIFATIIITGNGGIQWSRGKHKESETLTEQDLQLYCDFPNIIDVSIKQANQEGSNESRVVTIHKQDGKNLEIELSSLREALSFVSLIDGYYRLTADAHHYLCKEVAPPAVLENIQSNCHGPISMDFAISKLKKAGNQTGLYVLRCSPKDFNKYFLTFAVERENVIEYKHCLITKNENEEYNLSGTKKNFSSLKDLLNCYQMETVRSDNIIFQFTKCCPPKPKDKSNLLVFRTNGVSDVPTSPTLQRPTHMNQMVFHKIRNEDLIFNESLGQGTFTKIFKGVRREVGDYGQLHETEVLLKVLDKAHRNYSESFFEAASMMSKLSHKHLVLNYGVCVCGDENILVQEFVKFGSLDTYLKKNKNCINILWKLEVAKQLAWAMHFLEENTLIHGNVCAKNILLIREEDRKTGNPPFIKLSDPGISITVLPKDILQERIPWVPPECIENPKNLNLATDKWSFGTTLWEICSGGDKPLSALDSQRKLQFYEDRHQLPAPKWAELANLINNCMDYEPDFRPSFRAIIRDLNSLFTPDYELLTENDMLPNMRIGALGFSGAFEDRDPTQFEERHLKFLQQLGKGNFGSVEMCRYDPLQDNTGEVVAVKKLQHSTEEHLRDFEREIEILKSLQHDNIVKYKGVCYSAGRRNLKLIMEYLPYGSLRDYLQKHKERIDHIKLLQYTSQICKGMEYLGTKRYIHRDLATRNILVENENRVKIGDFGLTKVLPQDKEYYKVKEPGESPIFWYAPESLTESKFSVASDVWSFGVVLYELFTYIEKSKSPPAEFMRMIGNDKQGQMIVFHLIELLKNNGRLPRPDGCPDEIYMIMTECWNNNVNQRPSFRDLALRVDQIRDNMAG

Row | Compound | IC50 [1] | JAK3/AurA Fold Selectivity [2] | IC50 [2]
1 | Cn1cc(Nc2ncc3cnn(Cc4cccc(N5CCCCC5)c4)c3n2)cn1 [Example 8, N-(1-Methyl-1H-pyrazol-4-yl)-1-(3-(piperidin-1-yl)benzyl)-1H-pyrazolo[3,4-d]pyrimidin-6-amine] | ≥ 10 µM | 10-50 Fold | 1 to 10 µM
2 | Cn1cc(Nc2ncc3cnn(Cc4cccc(C5CCOCC5)c4)c3n2)cn1 [Example 9, N-(1-Methyl-1H-pyrazol-4-yl)-1-(3-(tetrahydro-2H-pyran-4-yl)benzyl)-1H-pyrazolo[3,4-d]pyrimidin-6-amine] | ≥ 10 µM | 10-50 Fold | 0.1 to 1 µM
3 | CN1CCN(c2cccc(Cn3ncc4cnc(Nc5cnn(C)c5)nc43)c2)CC1 [Example 10, N-(1-Methyl-1H-pyrazol-4-yl)-1-(3-(4-methylpiperazin-1-yl)benzyl)-1H-pyrazolo[3,4-d]pyrimidin-6-amine] | ≥ 10 µM | 3-10 Fold | 0.1 to 1 µM
4 | Cc1c(Cn2ncc3cnc(Nc4cnn(C)c4)nc32)cccc1N1CCOCC1 [Example 11, N-(1-Methyl-1H-pyrazol-4-yl)-1-(2-methyl-3-morpholinobenzyl)-1H-pyrazolo[3,4-d]pyrimidin-6-amine] | ≥ 10 µM | 10-50 Fold | 0.1 to 1 µM
5 | CNC(=O)Cn1cc(Nc2ncc3cnn(Cc4cccc(N5CCOCC5)c4)c3n2)cn1 [Example 12, N-Methyl-2-(4-((1-(3-morpholinobenzyl)-1H-pyrazolo[3,4-d]pyrimidin-6-yl)amino)-1H-pyrazol-1-yl)acetamide] | ≥ 10 µM | 3-10 Fold | 0.1 to 1 µM

Second part, the molecule after the results:

Row | IC50 [1] | JAK3/AurA Fold Selectivity [2] | IC50 [2] | Compound
6 | ≥ 10 µM | 3-10 Fold | 0.1 to 1 µM | C[C@@H]1COCCN1c1cccc(Cn2ncc3cnc(Nc4cnn(C)c4)nc32)n1 [Example 1, (R)—N-(1-Methyl-1H-pyrazol-4-yl)-1-((6-(3-methylmorpholino)pyridin-2-yl)methyl)-1H-pyrazolo[3,4-d]pyrimidin-6-amine]
7 | 1 to 10 µM | 10-50 Fold | 0.1 to 1 µM | Cn1cc(Nc2ncc3cnn(Cc4cccc(N5CCOCC5)c4)c3n2)cn1 [Example 2, N-(1-Methyl-1H-pyrazol-4-yl)-1-(3-morpholinobenzyl)-1H-pyrazolo[3,4-d]pyrimidin-6-amine]
8 | ≥ 10 µM | 10-50 Fold | 0.1 to 1 µM | Cn1cc(Nc2ncc3cnn(Cc4cccc(N5CCOCC5)n4)c3n2)cn1 [Example 3, N-(1-Methyl-1H-pyrazol-4-yl)-1-((6-morpholinopyridin-2-yl)methyl)-1H-pyrazolo[3,4-d]pyrimidin-6-amine]
9 | 1 to 10 µM | >50 Fold | 1 to 10 µM | CN(C)CCCn1cc(Nc2ncc3cnn(Cc4cccc(N5CCOCC5)c4)c3n2)cn1 [Example 4, N-(1-(3-(Dimethylamino)propyl)-1H-pyrazol-4-yl)-1-(3-morpholinobenzyl)-1H-pyrazolo[3,4-d]pyrimidin-6-amine]
10 | ≥ 10 µM | 10-50 Fold | 0.1 to 1 µM | OCCn1cc(Nc2ncc3cnn(Cc4cccc(N5CCOCC5)c4)c3n2)cn1 [Example 5, 2-(4-((1-(3-Morpholinobenzyl)-1H-pyrazolo[3,4-d]pyrimidin-6-yl)amino)-1H-pyrazol-1-yl)ethanol]
11 | ≥ 10 µM | 10-50 Fold | 0.1 to 1 µM | Cn1cc(Nc2ncc3cnn(Cc4cccc(C(=O)N5CCOCC5)c4)c3n2)cn1 [Example 6, (3-((6-((1-Methyl-1H-pyrazol-4-yl)amino)-1H-pyrazolo[3,4-d]pyrimidin-1-yl)methyl)phenyl)(morpholino)methanone]
12 | ≥ 10 µM | 10-50 Fold | 0.1 to 1 µM | Cn1cc(Nc2ncc3cnn(Cc4cccc(CN5CCOCC5)c4)c3n2)cn1 [Example 7, N-(1-Methyl-1H-pyrazol-4-yl)-1-(3-(morpholinomethyl)benzyl)-1H-pyrazolo[3,4-d]pyrimidin-6-amine]
